Experimental data taken from PMC6273235, “Phenolic Constituents of Medicinal Plants with Activity against Trypanosoma brucei” (Molecules, 2016).
Read-outs that look alike come from different tables or passages of the source.

Tests used:
[1] = test system: T. b. brucei strain 427 (bloodstream forms); assay: Anti-trypanosomal activity on T. brucei (resazurin growth inhibition, 3 days); assay type: cell-based, Trypanosoma brucei
Excerpt: To identify inhibitors of T. brucei growth, we conducted a screening of a proprietary library consisting of 440 purified natural products isolated from medicinal plants at the CNU laboratories. […] Nevertheless, since, according to the 5th rule, natural products may also represent exceptions from the other rules, all compounds were submitted to antiparasitic screening performed at a single concentration of 5 ppm (µg/mL) of each purified natural product.
T. b. brucei strain 427 (bloodstream forms) were cultivated at 37 °C with 5% CO2 atmosphere in HMI-9 medium supplemented with 10% FBS. […] After the incubation, the parasites were exposed to 120 µM of resazurin sodium salt for 5 h. Then, the parasites were fixed with 4% PFA and the assay plates were read by Victor 3 (PerkinElmer, Waltham, MA, USA) at 530 nmEx/590 nmEm. Pentamidine was used as a reference drug and DMSO 0.5% was used as a drug-negative control.

[2] = test system: Trypanosoma; design: method as in PMID 16569852, PMID 20004045; conditions: cited from earlier work
[3] = test system: HEK293T cells; assay: Cytotoxicity assay (resazurin, 3 days), HEK293T; assay type: cell-based, human; conditions: for s.i (selectivity index) HEK239T: CC50 (HEK293T)/IC50 (T. brucei)
Experimental: (§1) HEK293T and HepG2 cells were cultured at 37 °C with 5% CO2 in Dulbecco’s modified eagle medium containing 10% FBS. Both cell lines were plated individually in 384 well plates (4000 cells per well) and the natural compounds (two fold 10 points serial dilution starting from 5 ppm) were added for 3 days of incubation.

[4] = Cytotoxicity assay (resazurin, 3 days), HEK293T; assay type: cell-based, human; conditions: human
Experimental: as §1

[5] = Cytotoxicity assay (resazurin, 3 days), HepG2; assay type: cell-based, human; conditions: human
Experimental: as §1

[6] = test system: HepG2 cells; assay: Cytotoxicity assay (resazurin, 3 days), HepG2; assay type: cell-based, human; conditions: for s.i (selectivity index) HepG2: CC50 (HepG2)/IC50 (T. brucei)
Experimental: as §1

[7] = Trypanosoma brucei, 72 h, T. b. brucei strain 427 bloodstream forms, 3 days, mean ± SD, read-out: T. brucei IC50
[8] = Trypanosoma brucei, -log IC50 [M], experimental, read-out: pIC50 Tbr(exp) (converted)
[9] = T. b. brucei strain 427 bloodstream forms, 3 days, mean ± SD, read-out: T. brucei IC50
[10] = HEK293T cells, 3 days, > = highest concentration tested (5 ppm), read-out: Cytotoxicity CC50 Values HEK239T

| Molecule | IC50 [1, 7] [M] | IC50 [1, 8] [M] | anti-trypanosomal activity previously reported [2] | s.i (selectivity index) HEK239T [3] | CC50 at 3 days [4] [µM] | CC50 at 3 days [5] [µM] | s.i (selectivity index) HepG2 [6] | IC50 [1, 9] [M] | IC50 ([1]; Trypanosoma brucei, 72 h, read-out: T. brucei IC50) [M] | IC50 ([1]; Trypanosoma brucei, read-out: pIC50 Tbr(exp) (converted)) [M] | CC50 at 3 days [4, 10] [µM] | CC50 at 3 days ([5]; HepG2 cells, 3 days, > = highest concentration tested (5 ppm), read-out: Cytotoxicity CC50 Values HepG2) [µM] | pIC50 Tbr(exp) ([1]; -log IC50 [M], experimental) | CC50 [3, 10] [µM] | CC50 ([6]; HepG2 cells, 3 days, > = highest concentration tested (5 ppm)) [µM] |
| --- | --- | --- | --- | --- | --- | --- | --- | --- | --- | --- | --- | --- | --- | --- | --- |
| O=C(/C=C/c1ccc(O)cc1)CC(=O)/C=C/c1ccc(O)cc1 [Compound 1, bisdemethoxycurcumin] | 9.84e-06 ± 8.4e-07 | 9.84e-06 | anti-trypanosomal activity | >3.30 | > 32.5 | > 32.5 | >3.30 | – | – | – | – | – | – | – | – |
| CC(C)=CCc1cc(C(=O)/C=C/c2ccc(O)c(O)c2)c(O)cc1O [Compound 4, broussochalcone A] | – | 2.17e-06 | – | >13.28 | > 28.8 | > 29.2 | – | – | – | – | – | – | – | – | – |
| COc1cc(O)ccc1C(=O)/C=C/c1ccc(O)cc1 [Compound 5, 3-deoxysappanchalcone] | > 1e-05 | 1.04e-05 | – | >2.91 | > 30.2 | > 37.1 | >3.58 | 1.04e-05 ± 3.36e-06 | – | – | – | – | – | – | – |
| CC(C)=CCC/C(C)=C/Cc1c(O)ccc(C(=O)/C=C/c2ccc(O)cc2)c1O [Compound 6, xanthoangelol] | 7.42e-06 ± 1.12e-06 | 7.41e-06 | – | >3.43 | > 25.4 | > 25.4 | >3.43 | – | – | – | – | – | – | – | – |
| COc1cc(CC/C=C/C(=O)CCc2ccccc2)ccc1O [Compound 7, 7-(4″-hydroxy-3″-methoxyphenyl)-1-phenylhept-4-en-3-one] | – | 2.48e-06 | – | >13.05 | > 32.4 | > 32.4 | >13.05 | – | – | – | – | – | – | – | – |
| COc1cc(C=CC=O)ccc1O [Compound 8, 4-hydroxy-3-methoxycinnamaldehyde] | > 1e-05 | 1.64e-05 | – | >2.93 | > 48.1 | > 57 | >3.47 | 1.64e-05 ± 2.78e-06 | – | – | – | – | – | – | – |
| C=CCc1ccc(Oc2cc(/C=C/C=O)cc(O)c2O)cc1 [Compound 9, obovatal] | 9.89e-06 ± 5.1e-07 | 9.89e-06 | – | >3.42 | > 33.8 | > 33.8 | >3.42 | – | – | – | – | – | – | – | – |
| C=CCc1ccc(O)c(-c2ccc(O)c(CC=C)c2)c1 [Compound 10, honokiol] | 8.76e-06 ± 3.8e-07 | 8.77e-06 | – | >4.29 | > 37.6 | > 37.6 | >4.29 | – | – | – | – | – | – | – | – |
| C=C[C@H](OC(C)=O)c1ccc(OC(C)=O)cc1 [Compound 11, 1′S-1′-acetoxychavicol acetate] | < 5e-06 | 4.7e-06 | – | >4.94 | > 23.2 | > 30 | >6.38 | 4.7e-06 ± 1.53e-06 | – | – | – | – | – | – | – |
| COc1ccc([C@H](O)[C@@H](C)Oc2ccc([C@H]3O[C@H](c4ccc5c(c4)OCO5)[C@H](C)[C@H]3C)cc2OC)cc1OC [Compound 12, saucerneol D] | 5.61e-06 ± 9e-08 | 5.61e-06 | – | >2.89 | > 16.2 | > 18.6 | >3.32 | – | – | – | – | – | – | – | – |
| COc1ccc([C@@H](O)[C@@H](C)Oc2ccc([C@H]3O[C@H](c4ccc(O[C@H](C)[C@H](O)c5ccc(OC)c(OC)c5)c(OC)c4)[C@H](C)[C@H]3C)cc2OC)cc1OC [Compound 13, manassantin A] | – | – | – | – | – | – | – | – | 5.43e-06 ± 2.6e-07 | 5.43e-06 | > 11.8 | > 13.7 | – | – | – |
| COc1ccc([C@@H](O)[C@@H](C)Oc2ccc([C@H]3O[C@H](c4ccc(O[C@H](C)[C@H](O)c5ccc6c(c5)OCO6)c(OC)c4)[C@H](C)[C@H]3C)cc2OC)cc1OC [Compound 14, manassantin B] | < 5e-06 | 3.54e-06 | – | >3.12 | > 11 | > 13.9 | >3.93 | 3.54e-06 ± 4.9e-07 | – | – | – | – | – | – | – |
| C=C(C)[C@H](CC=C(C)C)Cc1c(O)cc(O)c2c1O[C@H](c1ccc(O)cc1O)CC2=O [Compound 15, kushenol F] | – | 1.37e-06 | – | >17.34 | > 23.8 | > 23.8 | >17.34 | – | – | – | – | – | – | – | – |
| O=c1cc(-c2ccc(O)cc2)oc2cc(O)cc(O)c12 [Compound 16, apigenin] | > 1e-05 | 1.1e-05 | anti-trypanosomal activity | >3.38 | > 37 | > 37 | >3.38 | 1.1e-05 ± 2.64e-06 | – | – | – | – | – | – | – |
| COc1ccc(-c2cc(=O)c3c(O)c(OC)c(O)cc3o2)cc1OC [Compound 17, eupatilin] | 8.14e-06 ± 1.37e-06 | 8.15e-06 | – | >3.58 | > 29.1 | > 29.1 | >3.58 | – | – | – | – | – | – | – | – |
| CC(C)=CCc1c(-c2ccc(O)cc2O)oc2c3c(cc(O)c2c1=O)OC(C)(C)C=C3 [Compound 18, morusin] | < 5e-06 | 3.4e-06 | – | >6.98 | > 23.7 | > 23.7 | >6.98 | 3.4e-06 ± 1.5e-07 | – | – | – | – | – | – | – |
| O=C1c2ccc(O)cc2OC[C@H]1Cc1ccc(O)c(O)c1 [Compound 19, 3-deoxysappanone B] | 5.8e-06 ± 7e-08 | 5.79e-06 | – | >6.04 | > 35 | > 35 | >6.04 | – | – | – | – | – | – | – | – |
| CC(C)=CCc1c(O)c(CC=C(C)C)c2occ(-c3ccc(O)c(O)c3)c(=O)c2c1O [Compound 20, 6,8-diprenylorobol] | – | 5.2e-07 | – | >46.34 | > 24.1 | > 24.1 | >46.34 | – | – | – | – | – | – | – | – |
| O=c1c(-c2ccc(O)cc2)coc2cc(O[C@@H]3O[C@H](CO)[C@@H](O)[C@H](O)[C@H]3O)cc(O)c12 [Compound 21, genistin] | < 5e-06 | 3.31e-06 | – | >6.99 | > 23.1 | > 23.1 | >6.99 | 3.31e-06 ± 7.5e-07 | – | – | – | – | – | – | – |
| O=c1c(-c2ccc(O[C@@H]3O[C@H](CO)[C@@H](O)[C@H](O)[C@H]3O)cc2)coc2cc(O)cc(O)c12 [Compound 22, sophoricoside] | 6.5e-06 ± 5.2e-07 | 6.5e-06 | – | >3.56 | > 23.1 | > 23.1 | >3.56 | – | – | – | – | – | – | – | – |
| N=C(N)c1ccc(OCCCCCOc2ccc(C(=N)N)cc2)cc1 [Pentamidine, reference compound] | 4e-09 ± 3e-09 | – | – | <26.7 | – | – | – | – | – | – | – | – | – | – | – |
| demethoxycurcumin [Compound 2] | – | – | anti-trypanosomal activity | – | – | – | – | 7.19e-06 ± 1.02e-06 | – | – | – | – | 5.143 | > 21.4 | > 29.6 |
